pIC50: −log10 of the molar value.
Target: Xanthine dehydrogenase/oxidase (Homo sapiens, UniProt P47989)
Assay: Inhibition of xanthine oxidase (unknown origin) using xanthine as substrate preincubated for 5 mins followed by substrate addition measured for 20 mins by spectrophotometric method

Chain of Xanthine dehydrogenase/oxidase (P47989 whole entry): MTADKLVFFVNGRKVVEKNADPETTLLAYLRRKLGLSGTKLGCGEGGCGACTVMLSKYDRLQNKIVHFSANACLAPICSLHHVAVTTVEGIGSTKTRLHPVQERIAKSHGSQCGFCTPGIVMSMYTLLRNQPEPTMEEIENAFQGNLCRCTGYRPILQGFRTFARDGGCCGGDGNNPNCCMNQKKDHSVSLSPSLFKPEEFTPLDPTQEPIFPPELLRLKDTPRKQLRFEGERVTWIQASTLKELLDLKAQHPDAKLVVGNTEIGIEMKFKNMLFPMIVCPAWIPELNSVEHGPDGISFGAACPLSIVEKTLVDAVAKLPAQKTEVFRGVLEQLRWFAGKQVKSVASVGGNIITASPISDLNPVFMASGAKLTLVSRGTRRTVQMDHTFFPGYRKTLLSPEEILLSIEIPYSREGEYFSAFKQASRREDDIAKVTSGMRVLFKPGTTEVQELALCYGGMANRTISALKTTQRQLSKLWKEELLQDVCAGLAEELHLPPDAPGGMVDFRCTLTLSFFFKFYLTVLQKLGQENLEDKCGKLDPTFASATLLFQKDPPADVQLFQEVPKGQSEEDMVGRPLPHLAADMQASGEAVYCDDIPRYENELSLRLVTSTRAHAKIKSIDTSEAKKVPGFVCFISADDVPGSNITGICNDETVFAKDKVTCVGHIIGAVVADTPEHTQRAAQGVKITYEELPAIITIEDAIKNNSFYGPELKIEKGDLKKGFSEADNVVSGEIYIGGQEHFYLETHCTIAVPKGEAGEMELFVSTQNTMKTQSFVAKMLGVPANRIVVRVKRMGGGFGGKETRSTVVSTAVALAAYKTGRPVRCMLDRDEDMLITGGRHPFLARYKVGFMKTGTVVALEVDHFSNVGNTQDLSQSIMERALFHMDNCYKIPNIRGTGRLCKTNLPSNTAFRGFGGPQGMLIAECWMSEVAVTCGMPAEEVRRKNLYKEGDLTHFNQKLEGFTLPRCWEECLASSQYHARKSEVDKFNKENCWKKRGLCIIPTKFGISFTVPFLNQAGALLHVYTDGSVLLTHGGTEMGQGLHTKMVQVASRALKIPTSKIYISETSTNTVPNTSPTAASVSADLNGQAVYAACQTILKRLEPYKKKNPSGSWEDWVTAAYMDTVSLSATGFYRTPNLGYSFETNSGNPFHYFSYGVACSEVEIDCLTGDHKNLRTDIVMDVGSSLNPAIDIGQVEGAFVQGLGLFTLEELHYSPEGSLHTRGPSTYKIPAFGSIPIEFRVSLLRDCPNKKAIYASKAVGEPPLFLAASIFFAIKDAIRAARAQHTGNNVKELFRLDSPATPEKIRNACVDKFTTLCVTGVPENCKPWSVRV

Structure (SMILES): Cc1nc(-c2ccc(OCC(C)C)c(C#N)c2)sc1C(=O)O [FEBUXOSTAT]
- pIC50: 7.89
